Laboratory results from patent US20230201216A1, “AZELASTINE AS ANTIVIRAL TREATMENT” (priority 2020, published 2023).
Structures can show the parent of a compound that is named as a salt. Where two headings read alike, the source gives them in different places.

Legend:
[1] = tested on: SARS-CoV-2; assay type: cell-based; conditions: for viral particle/μL, co-administration / viral particle/μL, post-infection administration: Vero E6, 48 h post infection, median; for reduction of viral particle numbers (up to): Vero E6
[2] = tested on: SARS-CoV-2 B.1.351; assay type: cell-based
[3] = tested on: SARS-CoV-2; conditions: without virus infection; MucilAir
[4] = tested on: SARS-CoV-2; assay type: cell-based; conditions: for cytopathic effect (CPE) score: Vero E6, MOI 0.1, 48 hours post infection; for protective effect against SARS-CoV-2 cytopathic effect: Vero E6
[5] = tested on: SARS-CoV-2; assay type: cell-based
[6] = tested on: RSV Long strain; experiment: RSV infection of HEp-2 cells, spot count and viral genome copy number by RT-PCR; assay type: cell-based, Respiratory Syncytial Virus; conditions: for RSV infection of cells by spot count, compared to vehicle (DMSO) treated controls: all 3 settings, HEp-2
[7] = tested on: influenza H1N1; assay type: cell-based; conditions: 24 h post-infection, compared to buffer treated cells
[8] = tested on: IL-8; assay type: cell-based, human
[9] = tested on: RANTES; assay type: cell-based, human
[10] = tested on: MucilAir human nasal epithelial cells
[11] = tested on: SARS-CoV-2; conditions: cells expressing TMPRSS2, including Calu-3; ref. Hoffmann et al.; cited from earlier work

Compound: CN1CCCC(n2nc(Cc3ccc(Cl)cc3)c3ccccc3c2=O)CC1 (centres unmarked) [Azelastine, 4-[(4-chlorophenyl)methyl]-2-(1-methylazepan-4-yl)phthalazin-1-one]
- viral particle/μL, co-administration ([1]; 3.125 μM): 98.4 viral particle/μL
- viral particle/μL, post-infection administration ([1]; 3.125 μM): 138 viral particle/μL
- viral particle/μL, co-administration ([1]; 6.25 μM): 15.45 viral particle/μL
- viral particle/μL, post-infection administration ([1]; 6.25 μM): 68.4 viral particle/μL
- viral particle/μL, co-administration ([1]; 12.5 μM): 12.25 viral particle/μL
- viral particle/μL, post-infection administration ([1]; 12.5 μM): 52 viral particle/μL
- viral particle/μL, co-administration ([1]; 25 μM): 0.2 viral particle/μL
- viral particle/μL, post-infection administration ([1]; 25 μM): 6.865 viral particle/μL
- reduction of viral particle numbers (up to) ([1]; co-administration (simulating prevention)): > 99%
- reduction of viral particle numbers (up to) ([1]; post-infection administration (post-exposure or therapy)): > 97%
- inhibition (low viral numbers) [2]: over 90%
- tissue morphology of treated versus control cells [3]: No difference in tissue morphology

Compound: CN1CCCC(n2nc(Cc3ccc(Cl)cc3)c3ccccc3c2=O)CC1 (centres unmarked) [Azelastine-HCl]
- cytopathic effect (CPE) score ([4]; 3.125 μM): 2
- cytopathic effect (CPE) score ([4]; 6.25 μM): 2
- reduction of viral particle numbers [5]: over 90%
- reduction of viral particle numbers (up to) ([5]; 50 μM, Calu-3, MOI 0.01, 48 h): > 99%
- RSV infection of cells by spot count, compared to vehicle (DMSO) treated controls ([6]; 3.2 μM): ~50%
- RSV infection of cells by spot count, compared to vehicle (DMSO) treated controls ([6]; 6.4 μM): ~50%
- Viral genome copy relative to DMSO ([6]; 6.4 μM, co-administration, experiment #1): 46.65%
- Viral genome copy relative to DMSO ([6]; 6.4 μM, co-administration, experiment #2): 53.22%
- Viral genome copy relative to DMSO ([6]; 6.4 μM, preventive, experiment #1): 65.52%
- Viral genome copy relative to DMSO ([6]; 6.4 μM, preventive, experiment #2): 54.71%
- Viral genome copy relative to DMSO ([6]; 6.4 μM, therapeutic, experiment #1): 47.96%
- Viral genome copy relative to DMSO ([6]; 6.4 μM, therapeutic, experiment #2): 51.05%
- decrease in the viral copy ([7]; 0.01% azelastine-HCl): ~0.9 log
- reduction of viral genome copy ([7]; 0.01% azelastine-HCl): 87.4%
- decrease in the viral copy ([7]; 0.02% azelastine-HCl): ~1.9 log
- reduction of viral genome copy ([7]; 0.02% azelastine-HCl): 98.74%
- IL-8 levels compared to buffer control [8]: significantly reduced
- RANTES levels compared to buffer control [9]: significantly reduced
- cytotoxicity ([10]; 0.02% concentration, infected cells): no cytotoxicity
- cytotoxicity ([10]; 0.02% concentration, non-infected cells): 6.5%
- cytotoxicity ([10]; lower (0.01%) concentration): no cytotoxicity

Compound: CCN(CCO)CCCC(C)Nc1ccnc2cc(Cl)ccc12 (centres unmarked) [Hydroxychloroquine sulfate]
- potency on cells expressing the surface protease TMPRSS2 [11]: significantly loses its potency

Compound: Maraviroc
- cytopathic effect (CPE) score ([4]; 3.125 μM): 4
- cytopathic effect (CPE) score ([4]; 6.25 μM): 4
- cytopathic effect (CPE) score ([4]; 12.5 μM): 3
- cytopathic effect (CPE) score ([4]; 25 μM): 3
- cytopathic effect (CPE) score ([4]; 50 μM): 3
- protective effect against SARS-CoV-2 cytopathic effect ([4]; higher concentrations (12.5 to 50 μM)): only marginal protective effect
- protective effect against SARS-CoV-2 cytopathic effect ([4]; lower concentrations): not effective at all
